Assay results from patent US20260000624A1, “IONIZABLE LIPID CONTAINING BIODEGRADABLE DISULFIDE BOND AND LIPID NANOPARTICLES COMPRISING SAME” (ST PHARM CO., LTD., priority 2022, published 2026).

Key:
C57BL/6 mice [1] = experiment: Luc mRNA delivery via intravenous injection, bioluminescence by IVIS; assay type: in vivo; conditions: 0.1 mg/kg Luc mRNA, 3 hours, SM-102 control, FIG. 7
Description: To investigate the mRNA delivery of the 221-SS lipid nanoparticles, luciferase mRNA was delivered into mice, and gene expression was confirmed by bioluminescence.
Specifically, 221-SS 3 tail lipid nanoparticles encapsulated with Luc mRNA (SEQ ID NO: 1) were manufactured by the method of Example 2-3 above. The prepared lipid nanoparticles were injected intravenously into 7-week-old C57BL/6 mice at a dose of 0.1 mg/kg (based on mRNA), and 3 hours later, luciferin 0.25 mg/kg was administered intraperitoneally and bioluminescence was confirmed by IVIS (PerkinElmer, USA).
Next, in order to confirm the effect of the number of disulfide bond chains (tails), an in vivo assay using lipid nanoparticles encapsulated with 2 μg (0.1 mg/kg) of Luc mRNA (SEQ ID NO: 1) containing either 221-SS 3-tail (Compound 5) or 221-SS 4-tail (Compound 6) was performed via intravenous injection. The same experiment was also performed using lipid nanoparticles manufactured from a 1:1 mixture of 221-SS 3 chain and 221-SS 4 chain, wherein SM-102, FDA-approved ionizable lipid, was used as a control group.
Specifically, the respective lipid nanoparticles were injected intravenously into 7-week-old C57BL/6 mice at a dose of 0.1 mg/kg (based on mRNA), and 3 hours later, luciferin 0.25 mg/kg was administered intraperitoneally and bioluminescence was confirmed by IVIS (PerkinElmer, USA).

C57BL/6 mice [2] = experiment: Luc mRNA delivery via intramuscular injection, bioluminescence by IVIS; assay type: in vivo; conditions: 0.1 mg/kg Luc mRNA, 3 hours, SM-102 control, FIG. 9
Description: Luc mRNA (SEQ ID NO: 1) was delivered to mice by intramuscular injection, and gene expression was confirmed by bioluminescence.
Specifically, lipid nanoparticles (221-SS 3 tail, 221-SS 4 tail alone and mixed) containing Luc mRNA were manufactured, as described above, followed by intramuscular injection into C57BL/6 mice at a concentration of 0.1 mg/kg (based on mRNA). After 3 hours, luciferin 0.25 mg/kg was administered intraperitoneally and bioluminescence was confirmed by IVIS (PerkinElmer, USA).

[3] = tested on: HeLa cells (HeLa-Luc) expressing luciferase; experiment: Luc siRNA delivery, luminescence intensity in luciferase-expressing HeLa cells; assay type: cell-based; conditions: Luc siRNA LNP 5 nM/well, 24 hours, FIG. 3
Description: The test was conducted by delivering siRNA molecules, which inhibit the expression of luciferase enzyme, into engineered HeLa cells (HeLa-Luc) expressing luciferase using each lipid nanoparticle synthesized with various amine headgroups (Compound 1 to Compound 5, Compound 11, and Compound 12). The expression of the gene was confirmed by measuring the luminescence intensity.
Specifically, lipid nanoparticles encapsulated with Luc siRNAs (SEQ ID NOs: 4 and 5) at a concentration of 5 nM/well (based on siRNA concentration) were treated into the Hella cell line (Nexel, Korea) seeded in 96-well plate at […]. After 24 hours, the cells were treated with 100 μl/well of Bright-Glo™ luciferase assay solution (promega, USA) and left at room temperature for 10 minutes, and then the luminescence intensity of the lysed cells was measured using an Infinite M200 plate reader (Tecan, USA) (FIG. 3).

hepatocytes (HeLa) = experiment: GFP mRNA delivery, fluorescence intensity of lysed cells; assay type: cell-based; conditions: GFP mRNA LNP 0.1 μg/well, 24 hours, FIG. 4
Description: The test was conducted by delivering GFP mRNA molecules into hepatocytes (HeLa) using each lipid nanoparticle synthesized with various amine headgroups (Compound 1 to Compound 5, Compound 11, and Compound 12). The expression of the gene was confirmed by measuring the […] intensity.
Specifically, lipid nanoparticles encapsulated with 100 ng GFP mRNA (SEQ ID NO: 6) at a concentration of 0.1 μg/well (based on mRNA concentration) were treated into the hepatocyte line (Nexel, Korea) seeded in 96-well plate at 1×10^5 cells/well. After 24 hours, the cells were treated with 100 μl/well of cell lysis buffer (Thermofischer, US) and left at room temperature for 10 minutes, and then the fluorescence intensity of the lysed cells was measured using an Infinite M200 plate reader (Tecan, USA) (FIG. 4).

Row | SMILES | bioluminescence according to number of chains (C57BL/6 mice [1]) | bioluminescence according to number of chains (C57BL/6 mice [2]) | luminescence intensity (Luc siRNA delivery) [3] | fluorescence intensity (GFP mRNA delivery) (hepatocytes (HeLa))
1 | CCCCCCCCCCCCSSCCN(CCCN(C)CCCN(CCSSCCCCCCCCCCCC)CCSSCCCCCCCCCCCC)CCSSCCCCCCCCCCCC [Compound 6] | better effects than the negative control | superior to the negative control |  | 
2 | CCCCCCCCCCCCSSCCNCCCN(C)CCCN(CCSSCCCCCCCCCCCC)CCSSCCCCCCCCCCCC [Compound 5] | better effects than the negative control | superior to the negative control | higher efficiency | higher efficiency
3 | CCCCCCCCCCCCSSCCN(CCSSCCCCCCCCCCCC)CCN(C)C [Compound 1] |  |  | higher efficiency | higher efficiency
